Measurements taken from publication PMC8317065, “UPLC-MS/MS Method for Analysis of Endocannabinoid and Related Lipid Metabolism in Mouse Mucosal Tissue” (Frontiers in Physiology, 2021).
pIC50: −log10 of the molar value.

Key:
[1] = target: T1, ABHD6 (Mus musculus, UniProt Q8R2Y0); assay: MAG degradative enzyme activity assay with WWL 70, lung protein isolates; type: biochemical; details: for MAG metabolism, product recovery (normalized response): lung protein 25 μg, WWL 70 alone
T1 construct: from tissue; host or cells: mouse (C57BL/6J) lung, 800 x g supernatant
T1 sequence (Q8R2Y0 1-336): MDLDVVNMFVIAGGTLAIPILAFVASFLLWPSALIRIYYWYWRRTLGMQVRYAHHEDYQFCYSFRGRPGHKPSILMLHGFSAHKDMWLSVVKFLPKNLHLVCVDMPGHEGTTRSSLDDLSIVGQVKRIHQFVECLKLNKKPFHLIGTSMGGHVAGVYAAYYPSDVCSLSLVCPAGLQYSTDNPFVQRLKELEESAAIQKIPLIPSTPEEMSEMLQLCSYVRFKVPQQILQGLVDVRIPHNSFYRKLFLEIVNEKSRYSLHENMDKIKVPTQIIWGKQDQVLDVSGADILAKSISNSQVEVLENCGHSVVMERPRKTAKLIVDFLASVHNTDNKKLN
Description: (§1) Homogenized samples were centrifuged at 800 × g for 15 m at 4°C. The supernatant was collected in a 2.0 mL centrifuge tube and sonicated twice for 10 s. Samples underwent two sequential freeze thaw cycles using liquid N2. Samples were again centrifuged at 800 × g, 15 min, 4°C and the supernatant was collected. Total protein was then quantified via BCA assay and normalized between all samples. Protein isolations for each assay and each tissue were performed separately.
Substrate solutions were prepared by drying stock 19:2 MAG (50 nmol/reaction) under N2 steam and adding fatty acid free BSA (0.25%) and stock 50 mM Tris–HCl (pH = 8.0). The MGL substrate solution was then sonicated for 60 min while protein samples were prepared. […] MGL substrate solution was added to normalized protein (400 μL; 500 μL final volume) samples and incubated in a water bath at 37°C for 10 min (jejunum protein) or 30 min (lung protein). The reaction was stopped using 1.0 mL of chilled methanol containing the internal standard 17:1 FFA (5 nmol/reaction) and placed on ice. The products of the reaction were extracted via lipid extraction methods (see section “Lipid Extraction for Enzyme Assays”) and quantified via UPLC-MS/MS (see section “Quantitation of MAG Degradative Enzyme Activity Assay Products”).
Lipids were extracted using liquid-liquid extraction with chloroform (2.0 mL) followed by 0.8 mL 0.2-micron ultra-purified water. Samples were centrifuged (1500 × g, 5 min, 4°C) and the lower organic phase was collected. The samples were further purified, as previously described ([Batugedara et al., 2018]), via open-bed silica gel column chromatography which was washed with a 9:1 chloroform:methanol mixture to elute MAGs, FAEs, and FFAs for collection. Eluates were dried under N2 steam (99.998% pure) and resuspended in 0.2 mL of methanol:chloroform (1:1). Products were detected and quantified via UPLC-MS/MS techniques (see section “UPLC-MS/MS Detection of Analytes”).
Data was acquired using equipment described above (see section “UPLC-MS/MS Detection of Analytes”) and eluted by a gradient of water and methanol (containing 0.25% acetic acid, 5 mM ammonium acetate) at a flow rate of 0.4 mL/min and gradient: 90% methanol 0.0–0.1 min, 90–100% methanol 0.1–2.0 min, 100% methanol 2.0–2.1 min, 100–90% methanol 2.1–2.2 min, and 90% methanol 2.2–2.5 min. […] Lipids were quantified using a dilution series detecting deprotonated molecular ions in selected ion reading (SIR) mode (variable amounts of product 19:2 FFA versus fixed amount of internal standard 17:1 FFA). Extracted ion chromatograms for SIR masses were used to quantify analytes: 19:2 FFA (m/z = 293.2) product of MGL enzyme assay and 17:1 FFA (m/z = 267.2) as internal standard. Signal to noise ratio was >10 for all quantitated results.

[2] = system: ABHD6; set-up: method as in Li et al., 2007; details: fibroblast cell line; ref Li et al., 2007; read-out: IC50 reported for a fibroblast cell line; cited from earlier work
[3] = system: FAAH; set-up: method as in Piomelli et al., 2006; details: rat brain membranes; ref Piomelli et al., 2006; read-out: IC50 reported for rat brain membranes; cited from earlier work
[4] = target: T2, FAAH (Mus musculus, UniProt O08914); assay: FAAH (FAE degradative enzyme) activity assay, UPLC-MS/MS, jejunum epithelium protein isolates; type: biochemical; details: jejunum epithelium protein 50 μg
T2 construct: from tissue; host or cells: mouse (C57BL/6J) lung, 21,100 x g pellet
T2 sequence (O08914 1-579): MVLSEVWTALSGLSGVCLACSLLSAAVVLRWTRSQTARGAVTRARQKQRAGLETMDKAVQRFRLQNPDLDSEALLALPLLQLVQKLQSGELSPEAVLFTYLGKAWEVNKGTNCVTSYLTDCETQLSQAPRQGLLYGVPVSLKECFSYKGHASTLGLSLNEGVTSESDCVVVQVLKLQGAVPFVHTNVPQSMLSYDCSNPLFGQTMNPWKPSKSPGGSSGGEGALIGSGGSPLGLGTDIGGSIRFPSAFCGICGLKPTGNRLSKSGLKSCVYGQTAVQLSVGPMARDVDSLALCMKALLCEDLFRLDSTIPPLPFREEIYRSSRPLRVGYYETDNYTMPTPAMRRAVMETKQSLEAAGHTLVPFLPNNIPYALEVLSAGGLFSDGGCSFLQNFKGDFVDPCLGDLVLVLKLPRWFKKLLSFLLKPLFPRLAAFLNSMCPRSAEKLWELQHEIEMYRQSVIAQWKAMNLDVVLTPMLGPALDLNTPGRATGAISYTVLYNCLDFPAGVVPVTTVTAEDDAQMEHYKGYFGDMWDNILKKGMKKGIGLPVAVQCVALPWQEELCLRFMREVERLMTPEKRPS
Description: (§2) Homogenized samples were centrifuged at 21,100 × g for 30 min at 4°C. The supernatant was discarded, and the pellets were resuspended in 750 μL of chilled 1x PBS (pH = 7.0). To ensure homogenous solution, lung samples were further homogenized using a sonic dismembranator using 8–10 root mean square (RMS) Watts of output power. Total protein was then quantified via BCA assay and normalized between all samples. Alternative protein isolation methods were required for FAAH isolation due to its subcellular localization to membranes of cytoplasmic organelles ([Gulyas et al., 2004]).
(§3) Substrate solutions were prepared by drying stock [^2H4]-PEA (5 nmol/reaction) under N2 steam and adding fatty acid free BSA (0.25%) and stock 50 mM Tris–HCl (pH = 8.0). The substrate solution was then bath sonicated for 60 min while protein samples were prepared. […] The products of the reaction were extracted via lipid extraction methods (see section “Lipid Extraction for Enzyme Assays”) and quantified via UPLC-MS/MS (see section “Quantitation of FAE Degradative Enzyme Activity”).
(§4) Lipids were extracted using liquid-liquid extraction with chloroform (2.0 mL) followed by 0.8 mL 0.2-micron ultra-purified water. […] Products were detected and quantified via UPLC-MS/MS techniques (see section “UPLC-MS/MS Detection of Analytes”).

[5] = target: T2, FAAH; assay: FAAH activity assay, UPLC-MS/MS, lung protein isolates; type: biochemical; details: lung protein 10 μg
Description: as §2, §3, §4

[6] = system: MGL and ABHD6; assay: MAG degradative enzyme activity assay with JZL 184 and WWL 70 together, lung protein isolates; type: biochemical; details: mouse lung
Description: as §1
Substrate solutions were prepared by drying stock 19:2 MAG (50 nmol/reaction) under N2 steam and adding fatty acid free BSA (0.25%) and stock 50 mM Tris–HCl (pH = 8.0). The MGL substrate solution was then sonicated for 60 min while protein samples were prepared. […] MGL substrate solution was added to normalized protein (400 μL; 500 μL final volume) samples and incubated in a water bath at 37°C for 10 min (jejunum protein) or 30 min (lung protein). […] The products of the reaction were extracted via lipid extraction methods (see section “Lipid Extraction for Enzyme Assays”) and quantified via UPLC-MS/MS (see section “Quantitation of MAG Degradative Enzyme Activity Assay Products”).
Lipids were extracted using liquid-liquid extraction with chloroform (2.0 mL) followed by 0.8 mL 0.2-micron ultra-purified water. […] Products were detected and quantified via UPLC-MS/MS techniques (see section “UPLC-MS/MS Detection of Analytes”). […]

[7] = highest inhibitor concentration of range (1,000 nM)
[8] = lowest inhibitor concentration of range (3 nM)

Q: Which “MAG metabolism, product recovery (normalized response)” value ([1]; highest concentration of range (10,000 nM)) does the source give for `CN(Cc1cccc(-c2ccncc2)c1)C(=O)Oc1ccc(-c2ccc(C(N)=O)cc2)cc1` [WWL 70] here?
A: Its value is 33.07 ± 1.72%.

Q: And the “MAG metabolism, product recovery (normalized response)” value ([1]; lowest concentration of range (3 nM))?
A: Its value is 87.89 ± 13.69%.

Q: What about the pIC50 ([1]; mouse lung protein isolates 25 μg, WWL 70 3-10,000 nM alone, inhibition incomplete, read-out: IC50, inhibition of MAG metabolism (ABHD6 activity)) of the same compound?
A: The pIC50 was 6.11.

Q: And the “blockade of MAG degradation, maximum” value ([1]; protein isolates from lungs of healthy male mice, concentration-dependent)?
A: The value was “up to 66%”.

Q: With `NC(=O)c1cccc(-c2cccc(OC(=O)NC3CCCCC3)c2)c1` [URB597] as the compound, how does the pIC50 [3] read?
A: Its pIC50 is […].

Q: And the “FAAH activity (normalized response)” value [4, 7]?
A: Its value is 7.37 ± 0.001%.

Q: What about the “FAAH activity (normalized response)” value [4, 8] of the same compound?
A: Its value is 94.95 ± 7.89%.

Q: What about the “FAE metabolism (normalized response)” value [5, 7] of the same compound?
A: Its value is 4.15 ± 0.46%.

Q: And the “FAE metabolism (normalized response)” value [5, 8]?
A: Its value is 90.11 ± 8.58%.

Q: Which results are given for `O=C(Oc1ccc([N+](=O)[O-])cc1)N1CCC(C(O)(c2ccc3c(c2)OCO3)c2ccc3c(c2)OCO3)CC1` [JZL 184]?
A: MAG metabolism (normalized response) ([6]; 10 μM WWL 70 plus JZL 184, highest concentration of range (10,000 nM)): 22.32 ± 2.73%; MAG metabolism (normalized response) ([6]; 10 μM WWL 70 plus JZL 184, lowest concentration of range (3 nM)): 94.25 ± 6.64%
